≈ marks a conversion by molar mass, not a printed value. Counter-ions that a name gives are not always drawn.
Each molecule was assayed on Escherichia coli ATCC 25922 (assay: Minimal Inhibitory Concentration (MIC) determination, broth microdilution (CLSI M07-A10)). Details: Escherichia coli, ATCC25922, strain Escherichia coli ATCC 25922, 18-24 hours at 35±2° C., lowest concentration for complete growth inhibition (no visible growth), read-out: Escherichia coli growth inhibition MIC.
Format: cell-based
Description: Minimal Inhibitory Concentration (MIC) Determination:
The MIC of antibacterial compounds against multiple species and strains was determined using the broth microdilution method according to M07-A10 Clinical and Laboratory Standards Institute (CLSI) guidelines, using the appropriate broth medium. In short, the compound plates were prepared by dispensing 100 μL of each stock solution in the first well of a 96 well microtiter plate (MTP) at a concentration 100-fold higher than the final concentration desired in broth. Eleven serial 2-fold dilutions of the highest concentration were made in DMSO for new compounds and in water (or appropriate solution) for reference compounds [2]. 1 μL of each well was transferred in a new MTP, which served as the test plate by subsequent inoculation. This bacterial suspension was prepared from strains that were first sub-cultured on agar plates and incubated for 18-24 hours as appropriate. Following incubation, the inoculum was prepared from isolated colonies and adjusted to 0.5 McFarland turbidity standard (1 to 2×10^8 Colony Forming Units (CFU)/mL) in 0.9% saline. The bacterial suspension was then diluted 1:200 in appropriate sterile medium and within 15 minutes 100 μL/well were dispensed. Negative controls (lack of bacterial cells) and growth control wells (lack of compound) were included in all plates. MTPs were incubated for 18-24 hours at 35±2° C. in ambient air. The MIC value of each compound, expressed as μg/mL, was determined as the lowest concentration required for complete growth inhibition (no visible growth). • [1] CLSI (2015) Methods for dilution antimicrobial susceptibility tests for bacteria that grow aerobically; Approved Standard, Tenth Edition. CLSI Document M7-A10 (ISBN 1-56238-987-4). Wayne, PA: Clinical and Laboratory Standards Institute, 19087, USA. • [2] CLSI (2017) Performance Standards for Antimicrobial Susceptibility Testing; Twenty-Fifth Informational Supplement. CLSI Document M100-S27, CLSI, Wayne, Pennsylvania 19087, USA.
Table 1 provides the Minimal Inhibitory Concentrations (MIC) in micrograms per millilitre of the compounds of present invention obtained against the strain Escherichia coli ATCC 25922.

SMILES	MIC
O=C1COc2ncc(N3CC4(CCN(CC5Cc6c(c(F)c7c(nnn7C7CNC7)c6F)C5)CC4)OC3=O)nc2N1.O=CO (single isomer, unassigned) [Example 120, 6-[8-[[1-(azetidin-3-yl)-4,8-difluoro-6,7-dihydro-5H-cyclopenta[f]benzotriazol-6-yl]methyl]-2-oxo-1-oxa-3,8-diazaspiro[4.5]decan-3-yl]-4H-pyrazino[2,3-b][1,4]oxazin-3-one; formic acid]	0.25 µg/mL
CNCCn1cnc2c(F)c3c(c(F)c21)CC(CN1CCC2(CC1)CN(c1cnc4c(n1)NC(=O)CO4)C(=O)O2)C3 (single isomer, unassigned) [Example 126, 6-[2-oxo-8-[[4,8-difluoro-1-[2-(methylamino)ethyl]-6,7-dihydro-5H-cyclopenta[f]benzimidazol-6-yl]methyl]-1-oxa-3,8-diazaspiro[4.5]decan-3-yl]-4H-pyrazino[2,3-b][1,4]oxazin-3-one]	0.25 µg/mL (≈ 0.44 µM)
CNCc1nc2cc3c(c(F)c2o1)CC(CN1CCC2(CC1)CN(c1ccc4c(n1)NC(=O)CO4)C(=O)O2)C3 (single isomer, unassigned) [Example 136, 6-[8-[[8-Fluoro-2-(methylaminomethyl)-6,7-dihydro-5H-cyclopenta[f][1,3]benzoxazol-6-yl]methyl]-2-oxo-1-oxa-3,8-diazaspiro[4.5]decan-3-yl]-4H-pyrido[3,2-b][1,4]oxazin-3-one]	1 µg/mL (≈ 1.86 µM)
O=C1COc2ncc(N3CC4(CCN(CC5Cc6cc7nc([C@@H]8C[C@@H](O)CN8)oc7c(F)c6C5)CC4)OC3=O)nc2N1 (single isomer, unassigned) [Example 141]	0.5 µg/mL (≈ 0.863 µM)
CN[C@@H](CO)c1nc2cc3c(c(F)c2o1)CC(CN1CCC2(CC1)CN(c1cnc4c(n1)NC(=O)CO4)C(=O)O2)C3 (single isomer, unassigned) [Example 145]	0.5 µg/mL (≈ 0.881 µM)
CN(C)CC(=O)N(C)CCn1nnc2c(F)c3c(c(F)c21)CC(CN1CCC2(CC1)CN(c1cnc4c(n1)NC(=O)CO4)C(=O)O2)C3 (single isomer, unassigned) [Example 152, N-[2-[4,8-difluoro-6-[[2-oxo-3-(3-oxo-4H-pyrazino[2,3-b][1,4]oxazin-6-yl)-1-oxa-3,8-diazaspiro[4.5]decan-8-yl]methyl]-6,7-dihydro-5H-cyclopenta[f]benzotriazol-1-yl]ethyl]-2-(dimethylamino)-N-methyl-acetamide]	2 µg/mL (≈ 3.05 µM)

Further lines, results first:

MIC	SMILES
0.5 µg/mL	O=C1COc2ncc(N3CC4(CCN(CC5Cc6c(c(F)c7c(nnn7CCNC7CC7)c6F)C5)CC4)OC3=O)nc2N1.O=CO (single isomer, unassigned) [Example 124, 6-[8-[[1-[2-(Cyclopropylamino)ethyl]-4,8-difluoro-6,7-dihydro-5H-cyclopenta[f]benzotriazol-6-yl]methyl]-2-oxo-1-oxa-3,8-diazaspiro[4.5]decan-3-yl]-4H-pyrazino[2,3-b][1,4]oxazin-3-one;formic acid]
0.25 µg/mL	C[C@H](N)Cn1nnc2c(F)c3c(c(F)c21)CC(CN1CCC2(CC1)CN(c1cnc4c(n1)NC(=O)CO4)C(=O)O2)C3.Cl (single isomer, unassigned) [Example 130]

Same assay, conditions: strain Escherichia coli ATCC 25922, 18-24 hours at 35±2° C., lowest concentration for complete growth inhibition (no visible growth)

SMILES	Escherichia coli growth inhibition MIC
CNCCn1cnc2c(F)c3c(c(F)c21)CC(CN1CCC2(CC1)CN(c1cnc4c(n1)NC(=O)CO4)C(=O)O2)C3 (single isomer, unassigned) [Example 127]	0.25 µg/mL
CNCc1nc2cc3c(c(F)c2o1)CC(CN1CCC2(CC1)CN(c1ccc4c(n1)NC(=O)CO4)C(=O)O2)C3 (single isomer, unassigned) [Example 137, 6-[8-[[8-Fluoro-2-(methylaminomethyl)-6,7-dihydro-5H-cyclopenta[f][1,3]benzoxazol-6-yl]methyl]-2-oxo-1-oxa-3,8-diazaspiro[4.5]decan-3-yl]-4H-pyrido[3,2-b][1,4]oxazin-3-one]	0.5 µg/mL

Continued, values first:

Escherichia coli growth inhibition MIC	SMILES
0.125 µg/mL	CNCCn1nnc2c(F)c3c(c(F)c21)CC(CN1CCC2(CC1)CN(c1cnc4c(n1)NC(=O)CO4)C(=O)O2)C3 (single isomer, unassigned) [Example 119, 6-[2-oxo-8-[[4,8-difluoro-1-[2-(methylamino)ethyl]-6,7-dihydro-5H-cyclopenta[f]benzotriazol-6-yl]methyl]-1-oxa-3,8-diazaspiro[4.5]decan-3-yl]-4H-pyrazino[2,3-b][1,4]oxazin-3-one]
0.25 µg/mL	O=C1COc2ncc(N3CC4(CCN(CC5Cc6c(c(F)c7c(nnn7CCNC7CC7)c6F)C5)CC4)OC3=O)nc2N1.O=CO (single isomer, unassigned) [Example 125, 6-[8-[[1-[2-(Cyclopropylamino)ethyl]-4,8-difluoro-6,7-dihydro-5H-cyclopenta[f]benzotriazol-6-yl]methyl]-2-oxo-1-oxa-3,8-diazaspiro[4.5]decan-3-yl]-4H-pyrazino[2,3-b][1,4]oxazin-3-one;formic acid]
2 µg/mL	CN(C)CC(=O)N(C)CCn1nnc2c(F)c3c(c(F)c21)CC(CN1CCC2(CC1)CN(c1cnc4c(n1)NC(=O)CO4)C(=O)O2)C3 (single isomer, unassigned) [Example 153, N-[2-[4,8-difluoro-6-[[2-oxo-3-(3-oxo-4H-pyrazino[2,3-b][1,4]oxazin-6-yl)-1-oxa-3,8-diazaspiro[4.5]decan-8-yl]methyl]-6,7-dihydro-5H-cyclopenta[f]benzotriazol-1-yl]ethyl]-2-(dimethylamino)-N-methyl-acetamide]

Same assay, conditions: strain Escherichia coli ATCC 25922, 18-24 hours at 35±2° C., lowest concentration for complete growth inhibition (no visible growth), dihydrochloride

SMILES	Escherichia coli growth inhibition MIC
NCCn1nc2cc3c(c(F)c2n1)CC(CN1CCC2(CC1)CN(c1ccc4c(n1)NC(=O)CO4)C(=O)O2)C3 (single isomer, unassigned) [Example 132, 6-[2-oxo-8-[[2-(2-aminoethyl)-8-fluoro-6,7-dihydro-5H-cyclopenta[f]benzotriazol-6-yl]methyl]-1-oxa-3,8-diazaspiro[4.5]decan-3-yl]-4H-pyrido[3,2-b][1,4]oxazin-3-one dihydrochloride]	0.25 µg/mL
NCCn1nc2cc3c(c(F)c2n1)CC(CN1CCC2(CC1)CN(c1ccc4c(n1)NC(=O)CO4)C(=O)O2)C3 (single isomer, unassigned) [Example 133, 6-[2-oxo-8-[[2-(2-aminoethyl)-8-fluoro-6,7-dihydro-5H-cyclopenta[f]benzotriazol-6-yl]methyl]-1-oxa-3,8-diazaspiro[4.5]decan-3-yl]-4H-pyrido[3,2-b][1,4]oxazin-3-one dihydrochloride]	1 µg/mL
NCCn1nc2cc3c(c(F)c2n1)CC(CN1CCC2(CC1)CN(c1cnc4c(n1)NC(=O)CO4)C(=O)O2)C3 (single isomer, unassigned) [Example 134, 6-[2-oxo-8-[[2-(2-aminoethyl)-8-fluoro-6,7-dihydro-5H-cyclopenta[f]benzotriazol-6-yl]methyl]-1-oxa-3,8-diazaspiro[4.5]decan-3-yl]-4H-pyrazino[2,3-b][1,4]oxazin-3-one dihydrochloride]	0.125 µg/mL
NCCn1nc2cc3c(c(F)c2n1)CC(CN1CCC2(CC1)CN(c1cnc4c(n1)NC(=O)CO4)C(=O)O2)C3 (single isomer, unassigned) [Example 135, 6-[2-oxo-8-[[2-(2-aminoethyl)-8-fluoro-6,7-dihydro-5H-cyclopenta[f]benzotriazol-6-yl]methyl]-1-oxa-3,8-diazaspiro[4.5]decan-3-yl]-4H-pyrazino[2,3-b][1,4]oxazin-3-one dihydrochloride]	≤0.06 µg/mL

Same assay, conditions: strain Escherichia coli ATCC 25922, 18-24 hours at 35±2° C., lowest concentration for complete growth inhibition (no visible growth), formic acid

Escherichia coli growth inhibition MIC	SMILES
0.125 µg/mL	O=C1COc2ncc(N3CC4(CCN(CC5Cc6c(c(F)c7c(nnn7C7CNC7)c6F)C5)CC4)OC3=O)nc2N1.O=CO (single isomer, unassigned) [Example 121, 6-[8-[[1-(azetidin-3-yl)-4,8-difluoro-6,7-dihydro-5H-cyclopenta[f]benzotriazol-6-yl]methyl]-2-oxo-1-oxa-3,8-diazaspiro[4.5]decan-3-yl]-4H-pyrazino[2,3-b][1,4]oxazin-3-one; formic acid]

Same assay, conditions: strain Escherichia coli ATCC 25922, 18-24 hours at 35±2° C., lowest concentration for complete growth inhibition (no visible growth), hydrochloride

Escherichia coli growth inhibition MIC	SMILES
0.125 µg/mL	C[C@H](N)Cn1nnc2c(F)c3c(c(F)c21)CC(CN1CCC2(CC1)CN(c1cnc4c(n1)NC(=O)CO4)C(=O)O2)C3.Cl (single isomer, unassigned) [Example 131]

From patent US20240252506A1 (Hoffmann-La Roche Inc., priority 2021, published 2024)
